This note sets out measurements from patent US11466034B2, “Compound functioning as bromodomain protein inhibitor, and composition” (Betta Pharmaceuticals Co., Ltd., priority 2017, dated 2022).

One data set addresses BRD4(D1) (Homo sapiens (Human), UniProt O60885). The experiment in a line: Inhibitory activity against BRD4(D1), HTRF assay. The format is binding. As to the method: (§1) (+)-JQ1 was used as comparison compound, to evaluated the inhibitory activity of compounds of the invention against BRD4(D1) and BRD4(D2) in vitro.
(§2) The assays of BRD4 (D1) and BRD4 (D2) were conducted in a 384-well polystyrene plate. The test compounds were first serially diluted in DMSO and the test compound/DMSO were transferred to 384-well plates. The final concentration of DMSO in the assay was 0.1%. 2 volumes of protein/peptide mixture were added into 384-well plates, then 2 volumes of assay mixture were added, and shake for 30 s. The plate was incubated at room temperature for 2 h. Then the HTRF signal on EnVision was readed.
(§3) Use equation (1) to fit the date in Excel to obtain the value of the inhibition rate. Inhibition rate (%)=(maximum value−signal value)/(maximum value−minimum value)*100 Equation(1):
(§4) IC50 determination was performed by fitting the data using GraphPad Prism 5.0 software and equation (2). Y=bottom+(Top−bottom)/(1+10^((Log IC50−X)*HillSlope)); Equation(2): wherein, Y represents the percentage of inhibition (%); X represents the concentration of test compounds.
(§5) The IC50 data of the examples were provided in the following table, wherein, A stands for IC50<100 nM; B stands for IC50 is 100-300 nM; C stands for IC50>300 nM.

A further data set has as its target BRD4(D2) (Homo sapiens (Human), UniProt O60885). The experiment in a line: Inhibitory activity against BRD4(D2), HTRF assay. The format is binding. On the procedure: as §1, §2, §3, §4, §5
A short description of data set [1]: Pharmacokinetic assay in male SD rats, single gavage. The conditions noted are these: Sprague-Dawley (SD), rat, plasma. In kind it is in vivo. On the procedure: Male SD rats were offered by Beijing Vital River Laboratory Animal Technology Co., Ltd., the rats were divided into groups of 3, and the suspension of the test sample (5 mg/kg-20 mg/kg) was given by single gavage. The animals were fasted overnight before the experiment, the fasting time was from 10 hours before the administration to 4 hours after the administration. Blood was collected at 0.25, 0.5, 1, 2, 4, 7, and 24 hours after administration. Blood was collected from fundus venous plexus, and placed in EDTA-K2 anticoagulation tube. The sample was centrifuged at 4° C. and 4000 rpm for 10 min, the plasma was transferred into centrifuge tubes and the compound to be test was extracted by protein precipitation, the extract was analyzed by LC-MS/MS.

Bounds are passed on as bounds.

For `Cc1nc2ncc(-c3cn(C)c(=O)c4[nH]ccc34)nc2n1Cc1cccc(C(F)(F)F)c1` [Example 23, 4-(1-(3-trifluoromethylbenzyl)-2-methyl-1H-imidazo[4,5-b]pyrazin-6-yl)-6-methyl-1H-pyrrolo[2,3-c]pyridin-7(6H)-one], the IC50 against BRD4(D1) (class symbols) is under 100 nM. This molecule also returned an IC50 against BRD4(D2) (class symbols) of under 100 nM. In data set [1] (oral dose 10 mg/kg), this molecule showed an AUC(0-t) of 2830 ng·h/mL, a Cmax of 407 ng/mL and a half-life of 3.3 h.

Consider `CCS(=O)(=O)Nc1cc(-c2cn(C)c(=O)c3[nH]ccc23)nc2c1ncn2Cc1ccc(C(F)(F)F)cc1` [Example 58, N-(5-(6-methyl-7-oxo-6,7-dihydro-1H-pyrrolo[2,3-c]pyridin-4-yl)-3-(4-(trifluoromethyl)benzyl)-3H-imidazo[4,5-b]pyridin-7-yl)ethanesulfonamide], for which the IC50 against BRD4(D1) (numeric values) came to 1.6 nM. At BRD4(D2) (numeric values), this molecule showed an IC50 of 0.5 nM. In data set [1] (oral dose 10 mg/kg), this molecule gave an AUC(0-t) of 5100 ng·h/mL, a Cmax of 1960 ng/mL and a half-life of 2.3 h.

`CCS(=O)(=O)Nc1cc(-c2cn(C)c(=O)c3[nH]ccc23)nc2c1nc(C)n2Cc1ccc(F)cc1F` [Example 64, N-(3-(2,4-difluorobenzyl)-2-methyl-5-(6-methyl-7-oxo-6,7-dihydro-1H-pyrrolo[2,3-c]pyridin-4-yl)-3H-imidazo[4,5-b]pyridin-7-yl)ethanesulfonamide] had an IC50 against BRD4(D1) (numeric values) of 1.1 nM. The molecule further gave an IC50 at BRD4(D2) (numeric values) of 0.5 nM. In data set [1] (oral dose 6.7 mg/kg), this molecule had an AUC(0-t) of 5590 ng·h/mL, a Cmax of 1480 ng/mL and a half-life of 3.5 h.

In turn, `Cc1nc2ncc(-c3cn(C)c(=O)c4[nH]ccc34)nc2n1Cc1ccc(Cl)c(C(F)(F)F)c1` [Example 27, 4-(1-(3-trifluoromethyl-4-chlorobenzyl)-2-methyl-1H-imidazo[4,5-b]pyrazin-6-yl)-6-methyl-1H-pyrrolo[2,3-c]pyridin-7(6H)-one] returned an IC50 against BRD4(D1) (class symbols) of under 100 nM. Besides, the IC50 on BRD4(D2) (class symbols) was under 100 nM. In data set [1] (oral dose 10 mg/kg), this molecule showed an AUC(0-t) of 8500 ng·h/mL, a peak concentration (Cmax) of 1000 ng/mL and a half-life of 3.8 h.

For the molecule `CCS(=O)(=O)Nc1cc(-c2cn(C)c(=O)c3[nH]ccc23)nc2c1ncn2Cc1ccc(F)cc1F` [Example 59, N-(3-(2,4-difluorobenzyl)-5-(6-methyl-7-oxo-6,7-dihydro-1H-pyrrolo[2,3-c]pyridin-4-yl)-3H-imidazo[4,5-b]pyridin-7-yl)ethanesulfonamide], the half-maximal inhibitory concentration (IC50) at BRD4(D1) (numeric values) is 1.2 nM. The same molecule showed an IC50 on BRD4(D2) (numeric values) of 0.5 nM. Besides, in data set [1] (oral dose 5 mg/kg), the AUC(0-t) turned out to be 10200 ng·h/mL, the Cmax was determined as 3290 ng/mL and the half-life was 2.3 h.

Regarding `Cn1cc(-c2cnc3cnn(Cc4ccc(Cl)cc4)c3c2)c2cc[nH]c2c1=O` [Example 39, 4-(1-(4-chlorobenzyl)-1H-pyrazolo[4,3-b]pyridin-6-yl)-6-methyl-1,6-dihydro-7H-pyrrolo[2,3-c]pyridin-7-one], on BRD4(D1) (numeric values), inhibition was half-maximal at 21.2 nM (IC50). Besides, the half-inhibitory concentration (IC50) against BRD4(D2) (numeric values) was 7.9 nM. Also, in data set [1] (oral dose 10 mg/kg), the AUC(0-t) is 24000 ng·h/mL, the Cmax was determined as 1700 ng/mL and the half-life was 4.1 h.

In the case of `Cc1nc2ncc(-c3cn(C)c(=O)c4[nH]ccc34)nc2n1Cc1ccc(C(F)(F)F)cc1` [Example 19, 6-methyl-4-(2-methyl-1-(4-(trifluoromethyl)benzyl)-1H-imidazo[4,5-b]pyrazin-6-yl)-1H-pyrrolo[2,3-c]pyridin-7(6H)-one], on BRD4(D1) (numeric values), half-maximal inhibition (IC50) required 9.1 nM. For the same molecule, at BRD4(D2) (numeric values), inhibition was half-maximal at 1.6 nM (IC50). In data set [1] (oral dose 10 mg/kg), this molecule showed an exposure AUC(0-t) of 9430 ng·h/mL, a Cmax of 730 ng/mL and a half-life of 4.5 h.

With `CCn1cc(-c2cnc3nc(C)n(Cc4ccc(OC)cc4)c3c2)c2cc[nH]c2c1=O` [Example 12, 6-ethyl-4-(1-(4-methoxybenzyl)-2-methyl-1H-imidazo[4,5-b]pyridin-6-yl)-1,6-dihydro-7H-pyrrolo[2,3-c]pyridin-7-one], the IC50 against BRD4(D1) (class symbols) and against BRD4(D2) (class symbols) was 100 to 300 nM each time.

For `Cc1nc2ncc(-c3cn(C)c(=O)c4[nH]ccc34)cc2n1Cc1ccc(C(F)(F)F)cc1` [Example 4, 6-methyl-4-(2-methyl-1-(4-(trifluoromethyl)benzyl)-1H-imidazo[4,5-b]pyridin-6-yl)-1H-pyrrolo[2,3-c]pyridin-7(6H)-one], the IC50 against BRD4(D1) (numeric values) is 14.6 nM; against BRD4(D2) (numeric values), 4 nM.

Consider `Cc1cc2ncc(-c3cn(C)c(=O)c4[nH]ccc34)cc2n1Cc1c(Cl)cccc1Cl` [Example 38, 4-(1-(2,6-dichlorobenzyl)-2-methyl-1H-pyrrolo[3,2-b]pyridin-6-yl)-6-methyl-1,6-dihydro-7H-pyrrolo[2,3-c]pyridin-7-one], for which the results for the half-inhibitory concentration (IC50) against BRD4(D1) (numeric values) and on BRD4(D2) (numeric values) were 7.3 nM and 2.2 nM, respectively.

With `CCS(=O)(=O)Nc1cc(-c2cn(C)c(=O)c3[nH]ccc23)cc2c1nc(C)n2Cc1ccc(OC)cc1` [Example 43, N-(1-(4-methoxybenzyl)-2-methyl-6-(6-methyl-7-oxo-6,7-dihydro-H-pyrrolo[2,3-c]pyridin-4-yl)-1H-benzo[d]imidazol-4-yl)ethanesulfonamide], the IC50 on BRD4(D1) (class symbols) and on BRD4(D2) (class symbols) was under 100 nM each time.

For `CCS(=O)(=O)Nc1cc(-c2cn(C)c(=O)c3[nH]ccc23)cc2c1nc(C)n2Cc1cc(C(F)(F)F)ccc1F` [Example 47, N-(2-methyl-6-(6-methyl-7-oxo-6,7-dihydro-1H-pyrrolo[2,3-c]pyridin-4-yl)-1-(2-fluoro-5-(trifluoromethyl)benzyl)-1H-benzo[d]imidazol-4-yl)ethanesulfonamide], the IC50 against BRD4(D1) (class symbols) and against BRD4(D2) (class symbols) was under 100 nM each time.

On to `CCS(=O)(=O)Nc1cc(-c2cn(C)c(=O)c3[nH]ccc23)cc2c1nc(C)n2Cc1cccc(C(F)(F)F)c1` [Example 46, N-(2-methyl-6-(6-methyl-7-oxo-6,7-dihydro-1H-pyrrolo[2,3-c]pyridin-4-yl)-1-(3-(trifluoromethyl)benzyl)-1H-benzo[d]imidazol-4-yl)ethanesulfonamide], for which the 50% inhibitory concentration (IC50) at BRD4(D1) (class symbols) and against BRD4(D2) (class symbols) was under 100 nM throughout.

On to `CCS(=O)(=O)Nc1cc(-c2cn(C)c(=O)c3[nH]ccc23)cc2c1nc(C)n2C(C)c1ccc(Cl)cc1` (stereo not drawn) [Example 44, N-(1-(1-(4-chlorophenyl)ethyl)-2-methyl-6-(6-methyl-7-oxo-6,7-dihydro-H-pyrrolo[2,3-c]pyridin-4-yl)-1H-benzo[d]imidazol-4-yl)ethanesulfonamide], for which the IC50 at BRD4(D1) (class symbols) and against BRD4(D2) (class symbols) was under 100 nM in each case.

In data set [1] (oral dose 10 mg/kg), `Cc1nc2ncc(-c3cn(C)c(=O)c4[nH]ccc34)nc2n1Cc1ccc(Cl)cc1` [Example 18, 4-(1-(4-chlorobenzyl)-2-methyl-1H-imidazo[4,5-b]pyrazin-6-yl)-6-methyl-1H-pyrrolo[2,3-c]pyridin-7(6H)-one] gave an AUC(0-t) of 2290 ng·h/mL, a maximum concentration (Cmax) of 224 ng/mL and a half-life of 3.4 h.

Regarding `Cc1nc2ncc(-c3cn(C)c(=O)c4[nH]ccc34)nc2n1Cc1ccc(C(F)(F)F)c(F)c1` [Example 28, 4-(1-(3-fluoro-4-trifluoromethylbenzyl)-2-methyl-1H-imidazo[4,5-b]pyrazin-6-yl)-6-methyl-1H-pyrrolo[2,3-c]pyridin-7(6H)-one], the IC50 against BRD4(D1) (class symbols) and on BRD4(D2) (class symbols) was under 100 nM in each case.
